Data reported in patent publication US4048334A, “Active derivatives of methylamino in therapeutic compositions and methods of use” (priority 1974, dated 1977).

Legend:
[1] = system: neuroleptic-induced catatonia; assay: Inhibition of neuroleptic-induced catatonia (prochlorperazine); assay type: in vivo, rat (male, OFA strain); settings: for Inhibition of the neuroleptic-induced catatonia: 30 min before prochlorperazine; for activity compared with amantadine, neuroleptic-induced catatonia: versus amantadine
Protocol: 2. Inhibition of neuroleptic-induced catatonia
The blocking of dopaminergic receptors by neuroleptics in the extra-pyramidal system induces catatonia in the rat. Catatonia is differentiated from sedative properties by means of the test used hereabove for reserpine-induced catatonia. The same system of scoring was also employed in the present case.
An oral dose of the compound to be studied in aqueous solution was administered to batches of 10 male rats of the OFA strain weighing about 150 to 200 g. […] Three hours after the injection of this latter compound, catatonia was measured. An identical trial was also carried out with control animals which received prochlorperazine but none of the compounds under study.
The scoring system, used was that given hereabove in Table I.

[2] = system: reserpine-induced catatonia; assay: Inhibition of reserpine-induced catatonia; assay type: in vivo, rat (male, OFA strain); settings: for Inhibition of reserpine-induced catatonia: 30 min before reserpine
Protocol: 1. Inhibition of reserpine-induced catatonia
After sufficient doses of reserpine have been administered to the rat, a series of symptoms occur, more particularly ptosis, catatonia and a drop in central temperature. These symptoms are caused by the depletion of the intragranular reserve pool of boigenetic amines at the synaptic terminals.
An oral dose of the compound to be studied in aqueous solution was administered to batches of 10 male rats of the OFA strain weighing about 150 to 200 g. Thirty minutes later a dose of 5 mg/kg of reserpine was given by intraperitoneal route. Three hours after the injection of reserpine, the animals were suspended by the four paws to a horizontally stretched wire fixed at 15 cm from the ground. The catatonic animals were those which maintained the position so given for at least 30 seconds. […] The maximum score was therefore 10 per batch. An identical trial was undertaken with control animals which received reserpine but none of the compounds being studied.

Q: What does the source list for `CCCC(N)(CCC)CCC`?
A: score, neuroleptic-induced catatonia ([1]; 3 mg/kg): 4 (100% inhibition of catatonia in comparison with the controls (namely a score of 0 per studied batch)); score, reserpine-induced catatonia ([2]; 3 mg/kg): 4 (100% inhibition of catatonia in comparison with the controls (namely a score of 0 per studied batch))

Q: For `CCCC(N)(CC)CC(C)C` (stereo not drawn) [Compound 3, 1-Ethyl-1-isobutyl-n-butylamine], which “Inhibition of the neuroleptic-induced catatonia” value ([1]; 20 mg/kg oral) is on record?
A: 3 (70 to 80% inhibition of catatonia in comparison with the controls (namely a score of 2 or 3 per studied batch))

Q: What about the “Inhibition of reserpine-induced catatonia” value ([2]; 20 mg/kg oral) of the same molecule?
A: 3 (70 to 80% inhibition of catatonia in comparison with the controls (namely a score of 2 or 3 per studied batch))

Q: With `CCCCC(N)(CC)CCC` (stereo not drawn) [Compound 4, 1-Ethyl-1-n-propyl-n-pentylamine] as the molecule, how does the “Inhibition of the neuroleptic-induced catatonia” value ([1]; 20 mg/kg oral) read?
A: 3 (70 to 80% inhibition of catatonia in comparison with the controls (namely a score of 2 or 3 per studied batch))

Q: What about the “Inhibition of reserpine-induced catatonia” value ([2]; 20 mg/kg oral) of the same molecule?
A: 3 (70 to 80% inhibition of catatonia in comparison with the controls (namely a score of 2 or 3 per studied batch))

Q: With `CCCC(N)(CCC)CC(C)C` [Compound 5, 1-n-Propyl-1-isobutyl-n-butylamine] as the molecule, how does the “Inhibition of the neuroleptic-induced catatonia” value ([1]; 20 mg/kg oral) read?
A: 4 (100% inhibition of catatonia in comparison with the controls (namely a score of 0 per studied batch))

Q: And the “activity compared with amantadine, neuroleptic-induced catatonia” value [1]?
A: five times more active than amantadine

Q: And the “Inhibition of reserpine-induced catatonia” value ([2]; 20 mg/kg oral)?
A: 2 (50% inhibition of catationia in comprison with the controls (namely a score of 5 per studied batch))

Q: For `CCCC(C)CC(C)(N)CC` (stereo not drawn) [Compound 7, 1,3-Dimethyl-1-ethyl-n-hexylamine], which “Inhibition of the neuroleptic-induced catatonia” value ([1]; 40 mg/kg oral) is on record?
A: 1 (20 to 30% inhibition of catatonia in comparison with the controls (namely a score of 7 to 8 per studied batch))

Q: And the “Inhibition of reserpine-induced catatonia” value ([2]; 20 mg/kg oral)?
A: 1 (20 to 30% inhibition of catatonia in comparison with the controls (namely a score of 7 to 8 per studied batch))

Q: How did the “Inhibition of the neuroleptic-induced catatonia” value ([1]; 50 mg/kg oral) turn out when `CCCCC(C)(N)CC(C)C` (stereo not drawn) [Compound 8, 1-Methyl-1-isobutyl-n-pentylamine] was run?
A: 4 (100% inhibition of catatonia in comparison with the controls (namely a score of 0 per studied batch))

Q: And the “activity compared with amantadine, neuroleptic-induced catatonia” value [1]?
A: twice as active

Q: And the “Inhibition of reserpine-induced catatonia” value ([2]; 20 mg/kg oral)?
A: 1 (20 to 30% inhibition of catatonia in comparison with the controls (namely a score of 7 to 8 per studied batch))

Q: With `CCCCCCCC(C)(C)N` [Compound 10, 1,1-Dimethyl-n-octylamine] as the molecule, how does the “Inhibition of the neuroleptic-induced catatonia” value ([1]; 50 mg/kg oral) read?
A: 1 (20 to 30% inhibition of catatonia in comparison with the controls (namely a score of 7 to 8 per studied batch))

Q: And the “Inhibition of reserpine-induced catatonia” value ([2]; 20 mg/kg oral)?
A: 1 (20 to 30% inhibition of catatonia in comparison with the controls (namely a score of 7 to 8 per studied batch))

Q: What does the source list for `C=CCC(N)(CC=C)CC=C` [Compound 11, 1,1-Di-(2-propen-1-yl)-3-buten-1-ylamine]?
A: Inhibition of the neuroleptic-induced catatonia ([1]; 20 mg/kg oral): 1 (20 to 30% inhibition of catatonia in comparison with the controls (namely a score of 7 to 8 per studied batch)); Inhibition of reserpine-induced catatonia ([2]; 20 mg/kg oral): 1 (20 to 30% inhibition of catatonia in comparison with the controls (namely a score of 7 to 8 per studied batch))

Q: Which results are given for `CCCCC(C)CC(C)(C)N` (stereo not drawn) [Compound 13, 1,1,3-Trimethyl-n-heptylamine]?
A: Inhibition of the neuroleptic-induced catatonia ([1]; 50 mg/kg oral): 1 (20 to 30% inhibition of catatonia in comparison with the controls (namely a score of 7 to 8 per studied batch)); Inhibition of reserpine-induced catatonia ([2]; 25 mg/kg oral): 1 (20 to 30% inhibition of catatonia in comparison with the controls (namely a score of 7 to 8 per studied batch))

Q: For `CCCC(N)(CC)CC` [Compound 14, 1,1-Diethyl-n-butylamine], which “Inhibition of the neuroleptic-induced catatonia” value ([1]; 50 mg/kg oral) is on record?
A: 3 (70 to 80% inhibition of catatonia in comparison with the controls (namely a score of 2 or 3 per studied batch))

Q: And the “Inhibition of reserpine-induced catatonia” value ([2]; 50 mg/kg oral)?
A: 3 (70 to 80% inhibition of catatonia in comparison with the controls (namely a score of 2 or 3 per studied batch))

Q: Which “Inhibition of the neuroleptic-induced catatonia” value ([1]; 50 mg/kg oral) does the source give for `CCC(N)(CC)CC` [Compound 15, 1,1-Diethyl-n-propylamine] here?
A: 3 (70 to 80% inhibition of catatonia in comparison with the controls (namely a score of 2 or 3 per studied batch))

Q: And the “Inhibition of reserpine-induced catatonia” value ([2]; 50 mg/kg oral)?
A: 1 (20 to 30% inhibition of catatonia in comparison with the controls (namely a score of 7 to 8 per studied batch))

Q: Which results are given for `CCC(C)(C)N` [Compound 16, 1,1-Dimethyl-n-propylamine]?
A: Inhibition of the neuroleptic-induced catatonia ([1]; 10 mg/kg oral): 1 (20 to 30% inhibition of catatonia in comparison with the controls (namely a score of 7 to 8 per studied batch)); Inhibition of reserpine-induced catatonia ([2]; 50 mg/kg oral): 1 (20 to 30% inhibition of catatonia in comparison with the controls (namely a score of 7 to 8 per studied batch))

Q: What does the source list for `CCCC(CC)CC(C)(C)N` (stereo not drawn) [Compound 17, 1,1-Dimethyl-3-ethyl-n-hexylamine]?
A: Inhibition of the neuroleptic-induced catatonia ([1]; 11 mg/kg oral): 2 (50% inhibition of catationia in comprison with the controls (namely a score of 5 per studied batch)); Inhibition of reserpine-induced catatonia ([2]; 11 mg/kg oral): 1 (20 to 30% inhibition of catatonia in comparison with the controls (namely a score of 7 to 8 per studied batch))

Q: For `CCCC(N)(CC(C)C)CC(C)C` [Compound 18, 1,1-Diisobutyl-n-butylamine], which “Inhibition of the neuroleptic-induced catatonia” value ([1]; 12 mg/kg oral) is on record?
A: 1 (20 to 30% inhibition of catatonia in comparison with the controls (namely a score of 7 to 8 per studied batch))

Q: What about the “Inhibition of reserpine-induced catatonia” value ([2]; 12 mg/kg oral) of the same molecule?
A: 2 (50% inhibition of catationia in comprison with the controls (namely a score of 5 per studied batch))

Q: For `CCCC(N)(CCC)C(C)C` [Compound 19, 1-n-Propyl-1-isopropyl-n-butylamine], which “Inhibition of the neuroleptic-induced catatonia” value ([1]; 6 mg/kg oral) is on record?
A: 3 (70 to 80% inhibition of catatonia in comparison with the controls (namely a score of 2 or 3 per studied batch))

Q: What about the “Inhibition of reserpine-induced catatonia” value ([2]; 6 mg/kg oral) of the same molecule?
A: 3 (70 to 80% inhibition of catatonia in comparison with the controls (namely a score of 2 or 3 per studied batch))

Q: With `CCCC(N)(CCC)C(C)(C)C` [Compound 20, 1-n-Propyl-1-tert-butyl-n-butylamine] as the molecule, how does the “Inhibition of the neuroleptic-induced catatonia” value ([1]; 50 mg/kg oral) read?
A: 1 (20 to 30% inhibition of catatonia in comparison with the controls (namely a score of 7 to 8 per studied batch))

Q: What about the “Inhibition of reserpine-induced catatonia” value ([2]; 6 mg/kg oral) of the same molecule?
A: 2 (50% inhibition of catationia in comprison with the controls (namely a score of 5 per studied batch))

Q: `C#CC(N)(CCC)CCC` [Compound 21, 1,1-Di-n-propyl-2-propyn-1-ylamine] was tested. Which “Inhibition of the neuroleptic-induced catatonia” value ([1]; 30 mg/kg oral) did it give?
A: 1 (20 to 30% inhibition of catatonia in comparison with the controls (namely a score of 7 to 8 per studied batch))

Q: What about the “Inhibition of reserpine-induced catatonia” value ([2]; 30 mg/kg oral) of the same molecule?
A: 2 (50% inhibition of catationia in comprison with the controls (namely a score of 5 per studied batch))

Q: For `CCC#CC(N)(CC)CC` [Compound 22, 1,1-Diethyl-2-pentyn-1-ylamine], which “Inhibition of the neuroleptic-induced catatonia” value ([1]; 30 mg/kg oral) is on record?
A: 1 (20 to 30% inhibition of catatonia in comparison with the controls (namely a score of 7 to 8 per studied batch))

Q: And the “Inhibition of reserpine-induced catatonia” value ([2]; 60 mg/kg oral)?
A: 1 (20 to 30% inhibition of catatonia in comparison with the controls (namely a score of 7 to 8 per studied batch))

Q: `CCC=CC(N)(CC)CC` [Compound 23, 1,1-Diethyl-2-penten-1-ylamine] was tested. Which “Inhibition of the neuroleptic-induced catatonia” value ([1]; 30 mg/kg oral) did it give?
A: 1 (20 to 30% inhibition of catatonia in comparison with the controls (namely a score of 7 to 8 per studied batch))

Q: And the “Inhibition of reserpine-induced catatonia” value ([2]; 60 mg/kg oral)?
A: 1 (20 to 30% inhibition of catatonia in comparison with the controls (namely a score of 7 to 8 per studied batch))

Q: For `CCC#CC(N)(CCC)CCC` [Compound 24, 1,1-Di-n-propyl-2-pentyn-1-ylamine], which “Inhibition of the neuroleptic-induced catatonia” value ([1]; 20 mg/kg oral) is on record?
A: 2 (50% inhibition of catationia in comprison with the controls (namely a score of 5 per studied batch))

Q: And the “Inhibition of reserpine-induced catatonia” value ([2]; 20 mg/kg oral)?
A: 1 (20 to 30% inhibition of catatonia in comparison with the controls (namely a score of 7 to 8 per studied batch))
